In patent publication US20090215893A1, “Parakeratosis inhibitor, pore-shrinking agent,or rough skin preventing/ameliorating agent, and external composition for skin” (Shiseido Company Ltd, priority 2005, published 2009):

Experiments:
[1] = tested on: back of a hairless mouse (HR-1), 10 mass % oleic acid applied; assay: Parakeratosis-inhibiting effect tests: oleic acid applied to hairless mouse back, macroscopic rough skin evaluation and parakeratosis value; format: in vivo; details: for Macroscopic evaluation (average of four animals): 100 μL after oleic acid, three days, rough skin score 0.0 (no redness) to 2.0 (control); for Parakeratosis value (average of four animals): tape-stripped stratum corneum, hematoxylin, range 1.0 to 3.0, higher = parakeratosis advanced, control 2.0; for parakeratosis value / parakeratosis-inhibiting effect / rough skin preventing effect, based on stratum corneum peeling and redness: summary of Table 1, concentrations as in Table 1
Protocol: Aqueous solutions (containing 30 mass % of ethanol) of primarily 3 mass % of an α-amino acid derivative or salt thereof were prepared as the evaluation sample. The pH was regulated by hydrochloric acid or sodium hydroxide so as to be 7.0 to 7.5. When sample solubility was low, the solution was prepared accordingly.
100 μL of 10 mass % oleic acid solution (solvent: ethanol) were applied to the back of a hairless mouse (HR-1; Hoshino Laboratory Animals). Then the sample solution (α-amino acid derivative, and the like) was applied 100 μL at a time. This procedure was continued for three days. […] The status of the skin was evaluated in 0.25-point intervals, with skin where the control (control aqueous solution) had been applied being 2.0 and skin where there was no redness being 0.0. At the same time, the stratum corneum at the back of the hairless mouse was peeled off with tape, the nuclei were stained by hematoxylin, and the degree of parakeratosis was observed and evaluated by a parakeratosis value within a range of 1.0 to 3.0 (in 0.25 increments).

[2] = tested on: pores of the cheeks of healthy human males; assay: Human pore-shrinking effect (replica assessment of cheek pores); format: in vivo; details: for Replica assessment (average of n = 5): twice a day for one month, pore size rating 1-13, after application minus before application, control 0.3; for pore-shrinking effect: summary of Table 2, concentrations as in Table 2
Protocol: An experiment was conducted whereby a sample was applied twice a day for one month to the cheeks of healthy human males in groups of 5 men each. Aqueous solutions (containing 15 mass % of ethanol) of 3 mass % of the α-amino acid derivative or a salt thereof were prepared as the evaluation sample. The pH was regulated by hydrochloric acid or sodium hydroxide so as to be 7.0 to 7.5. When sample solubility was low, the solution was prepared accordingly. The control was an aqueous 15% ethanol solution. The sample aqueous solution and control aqueous solution were applied to one half of the face at a time.
A replica was collected before and after continuous application, and changes in the shape of the pores at the same site were observed using a three-dimensional laser scanning microscope. The size of the pores was macroscopically evaluated in 13 steps of 1 through 13 (with the pores becoming larger as the numbers became larger), the difference in the ratings before and after application (after application-before application) was calculated, and the efficacy of each sample was studied using this difference as the replica assessment.

[3] = tested on: back of hairless mice (HR-1), 10 mass % oleic acid applied; assay: Inhibiting effect against rough skin induced by oleic acid application (transepidermal water loss); format: in vivo; set-up: ΔTEWL value: unit not given here; details: for ΔTEWL value: three days, average of four animals, rough skin worse as value increases, control 12.0; for ΔTEWL value compared with the control aqueous solution / rough skin preventing/ameliorating effect: summary of Table 3, concentrations as in Table 3
Protocol: In order to investigate the inhibiting effect of α-amino acid derivatives and salts thereof against rough skin induced by oleic acid application, the transepidermal water loss (TEWL value) before and after application was measured, the difference was compared with the control (control aqueous solution), and the effect was determined. Sample preparation and the application method were in accordance with Example 1. The TEWL was determined using the TM210 TEWA Meter (Courage+Khazaka Electronic GmBH).
100 μL of 10 mass % oleic acid (solvent: ethanol) was applied to the back of hairless mice (HR-1, four mice per group). Then a sample solution (α-amino acid derivatives, and the like) was applied 100 μL at a time. This procedure was continued for three days. The following day, the TEWL value of the back was determined and the values of the four animals were averaged. Rough skin became worse as the ΔTEWL value increased.

[4] = tested on: cheek of a panel of 20 women; assay: Sensory irritation tests; format: in vivo, human; details: for Evaluation (sensory irritation, class of average rating): 1 mL on cheek, evaluated for ten minutes, 20 women; for sensory irritation: summary of Table 4, β-alanine at 3%
Protocol: 1 mL of a control aqueous solution and the sample aqueous solution prepared in Example 1 were applied using a cotton swab to the left or right cheek, respectively, of a panel of 20 women, the irritating sensation was evaluated every 30 seconds for ten minutes beginning immediately after application, and a final evaluation was reported. The evaluation of the irritating sensation was based on the following four steps of rating criteria, the average rating was calculated, and the average was classified by the following criteria.
3: Discontinued because of extremely strong irritation, such as stinging sensation, burning sensation, tickling sensation, itching, and the like.
2: Intolerable strong irritation, such as stinging sensation, burning sensation, tickling sensation, itching, and the like.
1: Tolerable with only slight stinging sensation, burning sensation, tickling sensation, itching, and the like.
0: Not particularly irritating.
A: average rating of less than 0.2
B: average rating of 0.2 to less than 1.0
C: average rating of 1.0 to less than 2.0
D: average rating of 2.0 or greater

| Structure (SMILES) | Macroscopic evaluation (average of four animals) ([1]; sample 1.5 mass %) | Parakeratosis value (average of four animals) ([1]; sample 1.5 mass %) | parakeratosis value / parakeratosis-inhibiting effect [1] | rough skin preventing effect, based on stratum corneum peeling and redness [1] | Replica assessment (average of n = 5) ([2]; sample 1.5 mass %) | pore-shrinking effect [2] | ΔTEWL value ([3]; sample 1.5 mass %) | ΔTEWL value compared with the control aqueous solution / rough skin preventing/ameliorating effect [3] | Evaluation (sensory irritation, class of average rating) ([4]; sample 1.5 mass %) | sensory irritation [4] | Macroscopic evaluation (average of four animals) ([1]; sample 3 mass %) | Parakeratosis value (average of four animals) ([1]; sample 3 mass %) | Replica assessment (average of n = 5) ([2]; sample 3 mass %) | ΔTEWL value ([3]; sample 3 mass %) | Evaluation (sensory irritation, class of average rating) ([4]; sample 3 mass %) | Macroscopic evaluation (average of four animals) ([1]; sample 1 mass %) | Parakeratosis value (average of four animals) ([1]; sample 1 mass %) | ΔTEWL value ([3]; sample 1 mass %) |
| --- | --- | --- | --- | --- | --- | --- | --- | --- | --- | --- | --- | --- | --- | --- | --- | --- | --- | --- |
| CC(NS(=O)(=O)c1ccccc1)C(=O)O (racemic) [N-benzenesulfonyl-DL-alanine] | 1.4 | 1.5 | reduced | seen | −0.8 | seen | 7.0 | significantly lower | A (average rating of less than 0.2) | no problems | – | – | – | – | – | – | – | – |
| O=C(O)C(CO)NS(=O)(=O)c1ccccc1 (racemic) [N-benzenesulfonyl-DL-serine] | – | – | reduced | seen | – | seen | – | significantly lower | – | no problems | 1.2 | 1.2 | −1.3 | 6.9 | A (average rating of less than 0.2) | – | – | – |
| CC(NC(=O)OCc1ccccc1)C(=O)O (racemic) [N-carbobenzoyloxy-DL-alanine] | – | – | reduced | seen | – | seen | – | significantly lower | – | no problems | 1.3 | 1.2 | −1.0 | 6.6 | A (average rating of less than 0.2) | – | – | – |
| O=C(NC(CO)C(=O)O)OCc1ccccc1 (racemic) [N-carbobenzoyloxy-DL-serine] | – | – | reduced | seen | – | seen | – | significantly lower | – | no problems | 1.2 | 1.2 | −1.3 | 6.7 | A (average rating of less than 0.2) | – | – | – |
| CC(NC1CCCCC1)C(=O)O (racemic) [N-cyclohexyl-DL-alanine] | – | – | reduced | seen | – | seen | – | significantly lower | – | no problems | 1.3 | 1.4 | −1.4 | 6.5 | A (average rating of less than 0.2) | – | – | – |
| O=C(O)C(CO)NC1CCCCC1 (racemic) [N-cyclohexyl-DL-serine] | – | – | reduced | seen | – | seen | – | significantly lower | – | no problems | 1.2 | 1.2 | −1.4 | 6.7 | A (average rating of less than 0.2) | – | – | – |
| CCNC(C)C(=O)O (racemic) [N-ethyl-DL-alanine] | – | – | reduced | seen | – | seen | – | significantly lower | – | no problems | 1.6 | 1.5 | −0.5 | 8.2 | A (average rating of less than 0.2) | – | – | – |
| CCNC(CO)C(=O)O (racemic) [N-ethyl-DL-serine] | – | – | reduced | seen | – | seen | – | significantly lower | – | no problems | 1.5 | 1.5 | −1.3 | 7.8 | A (average rating of less than 0.2) | – | – | – |
| CNC(C)C(=O)O (racemic) [N-methyl-DL-alanine] | – | – | reduced | seen | – | seen | – | significantly lower | – | no problems | 1.4 | 1.4 | −0.9 | 8.1 | A (average rating of less than 0.2) | – | – | – |
| O=C(O)CNC(=O)c1ccccc1 [Hippuric acid, reference compound] | – | – | not seen | – | – | – | – | not obtained | – | – | – | – | – | – | – | 1.9 | 2.0 | 10.5 |
| CC(=O)NCC(=O)O [N-acetyl-glycine, reference compound] | – | – | not seen | – | – | – | – | not obtained | – | – | 1.9 | 2.0 | – | 14.7 | – | – | – | – |
| O=C(O)CNCP(=O)(O)O [Phosphonomethyl-glycine, reference compound] | – | – | not seen | – | – | – | – | not obtained | – | – | – | – | – | – | – | 1.9 | 2.1 | 11.4 |
| NCCC(=O)O [β-alanine, reference compound] | – | – | – | – | – | – | – | – | – | strong sensory irritation | – | – | – | – | D (average rating of 2.0 or greater) | – | – | – |
